Source: patent US8478395B2, “Method of measuring electrical resistance value of corneal trans-epithelium” (Nagasaki University, priority 2008, dated 2013)

Columns and labels:
[1] = system: cornea of a living rabbit; experiment: Corneal TER measurement with the integrated TER measuring device of FIG. 6; type: in vivo, Japanese white rabbit; conditions: 0.02% BAC dropped onto the eye, one minute after the administration, device of FIG. 6, n=3
Source text: A silver electrode and a silver-silver chloride electrode having a diameter of 1 mm were placed on a round cover glass having a diameter of 12 mm. PDMS having a circular cylinder shape with 10 mm in diameter and 6 mm in inner diameter and having a curvature radius of the corneal contact surface of 7.9 mm was secured onto the cover glass by using an adhesive. An Eppendorf tube was attached to a rear side (on the side opposite to the corneal contact surface (cover glass side)) for mount onto a slit-lamp. The inner space of the PDMS was filled with an atelocollagen gel and its curvature radius was adjusted to 7.9 mm.
A silver electrode and a silver chloride electrode having a diameter of 1 mm were placed on a PET sheet of 0.005×0.5×1 cm, at position of 1 mm from the distal end of the sheet on the eyeball side. The PET sheet, the silver electrode and the silver chloride electrode were thinly coated with a collagen gel. […]
By using thus prepared TER measuring device, a change in the corneal TER of a living rabbit was measured. […]
A 0.02% BAC was dropped onto the eye of the rabbit, and the resulting TER value was compared with the TER value before the administration. […] Prior to the BAC administration (indicated as “normal cornea” in FIG. 7) as well as after the BAC administration, within one second after the device was contacted with the cornea, a stable TER value could be measured.

cornea of a rabbit = experiment: Living corneal TER measurement using anterior chamber centesis (anterior chamber centesis method); type: in vivo; conditions: 0.02% BAC
Procedure: Evaluation of Corneal Disorder Due to BAC by Living Corneal TER Measurement Using Anterior Chamber Centesis (Referred to as “Anterior Chamber Centesis Method”)
In accordance with the method described in non-Patent Document 4 supra, electrodes were placed on a cornea and into an anterior chamber of a rabbit, and after administration of 0.02% BAC, a corneal TER was measured.

[2] = system: cornea of a living rabbit; experiment: Living corneal TER measurement requiring no anterior chamber centesis (conjunctival sac method); type: in vivo; conditions: 0.02% BAC
Procedure: Evaluation of Corneal Disorder Due to BAC by Living Corneal TER Measurement Requiring No Anterior Chamber Centesis (Referred to as Conjunctival Sac Method) (FIG. 1)
Silver-silver chloride electrode having a rod shape was placed on a cornea and into a conjunctival sac of a living rabbit, and a 0.02% BAC was administered thereto. A change in the corneal TER due to exposure to BAC was measured by a voltage-electric resistance value measuring device. A rubber ring (6 mm in the inner diameter) was fixed onto the cornea around the periphery of the electrode by using a bioadhesive (Aron alpha A from Sankyo Co., Ltd.) for insulation, so that an electric current is surely passed through the epithelium of the cornea. An AC current of ±20 μA was flowed, and a change curve of TER, a reduction of TER and a TER value after a lapse of 60 seconds from the exposure to 0.02% BAC, were compared with those from the conventional measuring method in which the anterior chamber centesis was carried out (comparative example 1). The TER value was calculated by subtracting an electric resistance value between the anterior chamber and the conjunctival sac obtained in a preliminary experiment from the measured value.

Change of TER compared with the TER value before the administration [1]: significantly reduced
TER (TER before the administration of the BAC set to 100%) (cornea of a rabbit; 60 seconds after the administration): 19.7±5.9%
TER value (cornea of a rabbit; after a lapse of 60 seconds): 138±10 Ωcm^2
TER value ([2]; after a lapse of 60 seconds): 175±14 Ωcm^2
TER (TER before the administration of the BAC set to 100%) ([2]; after a lapse of 60 seconds, p<0.01): 13.5±2.1%
TER (TER before the administration of the BAC set to 100%) ([2]; ten seconds after the administration): 35.1±6.8%
Substance: benzalkonium chloride [BAC]
